Experimental data reported in paper PMC6825211 (Nature Communications, 2019).
Several values for one entry are separate records, joined by “and”; a condition that tells them apart may be missing. Identical values can stand only once.

Key:
[1] = target: MEK6 (Homo sapiens, UniProt P52564); assay: Nanosyn kinase profiling, mobility shift assay; settings: read-out: % inhibition by neratinib
[2] = target: JNK2 (Homo sapiens, UniProt P45984); assay: Nanosyn kinase profiling, mobility shift assay; settings: read-out: % inhibition by neratinib
Sequence of JNK2 (P45984 whole entry): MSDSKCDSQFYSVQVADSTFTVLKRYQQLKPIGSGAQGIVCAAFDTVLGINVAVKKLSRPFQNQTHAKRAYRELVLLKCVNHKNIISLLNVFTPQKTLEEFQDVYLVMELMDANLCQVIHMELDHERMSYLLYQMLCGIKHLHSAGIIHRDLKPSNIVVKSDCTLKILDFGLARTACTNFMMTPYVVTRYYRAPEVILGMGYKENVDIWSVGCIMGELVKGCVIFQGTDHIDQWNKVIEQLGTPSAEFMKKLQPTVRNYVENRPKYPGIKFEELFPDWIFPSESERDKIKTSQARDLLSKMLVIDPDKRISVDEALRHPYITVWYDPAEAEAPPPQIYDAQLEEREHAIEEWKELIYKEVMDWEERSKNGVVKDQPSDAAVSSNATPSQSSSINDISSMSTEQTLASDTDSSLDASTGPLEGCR

[3] = test system: 250 kinases; assay: Nanosyn panel of 250 biochemical kinase assays; settings: 3 µM, of 250 kinases
Procedure: inhibition was determined for each assay.

[4] = target: NEK2 (Homo sapiens, UniProt P51955); assay: Nanosyn kinase profiling, mobility shift assay; settings: read-out: % inhibition by neratinib
Sequence of NEK2 (P51955 whole entry): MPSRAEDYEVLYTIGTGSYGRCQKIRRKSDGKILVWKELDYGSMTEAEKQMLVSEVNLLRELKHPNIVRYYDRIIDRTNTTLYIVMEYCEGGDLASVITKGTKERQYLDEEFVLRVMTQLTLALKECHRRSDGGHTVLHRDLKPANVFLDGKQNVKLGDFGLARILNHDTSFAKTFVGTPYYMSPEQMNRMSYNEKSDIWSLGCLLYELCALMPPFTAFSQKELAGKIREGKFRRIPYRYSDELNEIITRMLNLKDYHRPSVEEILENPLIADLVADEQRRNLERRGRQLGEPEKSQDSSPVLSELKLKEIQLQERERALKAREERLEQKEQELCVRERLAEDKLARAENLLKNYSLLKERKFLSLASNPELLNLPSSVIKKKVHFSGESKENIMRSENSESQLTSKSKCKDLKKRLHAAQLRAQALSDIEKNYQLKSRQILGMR

[5] = MALDI imaging mass spectrometry of pancreas sections; type: in vivo, mouse
Procedure: MALDI imaging mass spectrometry (MALDI imaging MS) was performed on pancreas, liver, colon, stomach, kidney, heart, and brain tissue sections from WT C57BL/6J and db/db mice in triplicates. […] For MALDI imaging MS, 10-µm cryo sections were cut with a cryo-microtome (CM1860, Leica Biosystems, Nussloch, Germany) and mounted on indium–tin-coated conductive glass slides (Bruker Daltonics, Bremen, Germany). The matrix (HCCA in 50% ACN, 0.5% TFA) was applied with the ImagePrep Device (Bruker Daltonics), and MALDI spectra were recorded by using a Bruker autofleX speed mass spectrometer in positive reflector mode with a mass range of 400–1400 m/z. A large-size laser diameter was used with a lateral resolution of 100 µm, and 500 laser shots per pixel were accumulated with the random walk option set to 100 shots per position. […] Standards were spotted on mice liver cryo-sections and the spectral intensity was plotted.

[6] = MLD–STZ model: body weight; type: in vivo, mouse; settings: 5 mg/kg i.p. daily, 35 days
[7] = test system: MLD–STZ C57BL/6J mice; assay: MLD–STZ model: β-cell apoptosis (TUNEL); type: in vivo, mouse
Procedure: C57Bl/6J mice were injected with 40 mg/kg streptozotocin or citrate buffer for 5 consecutive days. […] In d, basal glucose values were normalized to 100%. e Insulin secretion measured from retro-orbital blood draw during an ipGTT measured before (0 min) and 15 min after glucose injection; data are expressed as the ratio of secreted insulin at 15 min/0 min (stimulatory index). f The ratio of secreted insulin and glucose is calculated at fed state. g–i Mice were killed at day 35. g β-cell mass (given as percentage of the whole pancreatic section from ten sections spanning the width of the pancreas) and quantitative analyses from triple staining for h TUNEL or i Ki67, insulin, and DAPI expressed as percentage of TUNEL- or Ki67-positive β-cells ±SEM. An average number of 2331 (h), or 26369 (i) β-cells were counted. n = 9 mice/group for (a); n = 4–12 for (b); n = 5–15 for (c) and (d); n = 12–19 for (e); n = 8–14 for (f); n = 4–9 for (g); n = 4–11 for (h); and n = 6–11 mice/groupfor (i); all from three independent experiments).
Mouse pancreases were dissected and fixed in 4% formaldehyde at 4 °C for 12 h before embedding in paraffin[62]. Two-four-micrometer sections were deparaffinized, rehydrated, and incubated overnight at 4 °C with anti-PDX-1 (Abcam; #47267), anti-Glut2 (Chemicon; #07-1402), anti-Ki67 (Dako; #M7249), anti-phospho-Histone H3 (Ser10; Merck #06-570), and anti-NKX6.1 (DSHB, University of Iowa #F55A12[66]) in combination with TSA (Invitrogen #T30955), or for 2 h at room temperature with anti-insulin (Dako; A0546) antibodies (all at a dilution of 1:100, except anti-PDX-1, which was diluted 1:400) followed by fluorescein isothiocyanate (FITC)- or Cy3-conjugated secondary antibodies (Jackson ImmunoResearch Laboratories, West Grove, PA). Slides were mounted with Vectashield with 4′6-diamidino-2-phenylindole (DAPI) (Vector Labs). β-cell apoptosis was analyzed by the terminal deoxynucleotidyl transferase-mediated dUTP nick-end labeling (TUNEL) technique according to the manufacturer’s instructions (In Situ Cell Death Detection Kit, TMR red; Roche) and double stained for insulin. Fluorescence was analyzed by using a Nikon MEA53200 (Nikon GmbH, Dusseldorf, Germany) microscope, and images were acquired by using NIS-Elements software (Nikon).

[8] = test system: MLD–STZ C57BL/6J mice; assay: MLD–STZ model: β-cell proliferation (Ki67); type: in vivo, mouse
[9] = test system: MST family members; design: method as in PMID 22037378; settings: cited from earlier work
[10] = test system: obese diabetic Lepr db/db mice; assay: db/db model: ipITT; type: in vivo, mouse; design: ipITT: unit not given here; settings: for ipITT normalized to 100: MEAN
Excerpt: Data are representative of six mice per group (n = 6 for (a–f)). g–j Mice were killed at day 31. g β-cell mass (given as percentage of the whole pancreatic section from ten sections spanning the width of the pancreas; n = 5 mice/group) and quantitative analyses from triple stainings for (h) TUNEL, (i) Ki67, (j) pHH3, and (k) nuclear PDX1 expression, insulin, and DAPI expressed as percentage of TUNEL-, Ki67-, pHH3-, or nuclear PDX1-positive β-cells ± SEM. An average number of 13667 (h), 5937 (i), 7108 (j), or 4330 (k) β-cells were counted from n = 3–5 (h, i, k) or n = 5–6 (j) mice/group.
For intraperitoneal glucose tolerance tests, mice were fasted 12 h overnight and injected i.p. with glucose (40%; B.Braun, Melsungen, Germany) at a dose of 1 g/kg body weight. Blood samples were obtained at time points 0, 15, 30, 60, 90, and 120 min for glucose measurements by using a Glucometer. For i.p. insulin tolerance tests, mice were injected with 0.75 U/kg body weight recombinant human insulin (Novolin, Novo Nordisk) after 4–5-h fasting, and glucose concentration was determined with the Glucometer. Insulin secretion was measured before (0 min) and after (15 and 30 min) i.p. injection of glucose (2 g/kg) and measured by using ultrasensitive mouse Elisa kit (ALPCO Diagnostics, Salem, NH).

[11] = test system: MLD–STZ C57BL/6J mice; assay: MLD–STZ model: PDX1, NKX6.1, Glut2 immunostaining; type: in vivo, mouse
Procedure: Representative triple stainings for PDX1 (red, a), Glut2 (red, b), or NKX6.1 (red, c), insulin (green), and DAPI (blue) are shown from vehicle-, STZ-, and STZ/Nera-treated mice (n = 8, 4, 9 & 9 mice/group). Scale bar, 100 μm
Mouse pancreases were dissected and fixed in 4% formaldehyde at 4 °C for 12 h before embedding in paraffin[62]. […] Slides were mounted with Vectashield with 4′6-diamidino-2-phenylindole (DAPI) (Vector Labs). β-cell apoptosis was analyzed by the terminal deoxynucleotidyl transferase-mediated dUTP nick-end labeling (TUNEL) technique according to the manufacturer’s instructions (In Situ Cell Death Detection Kit, TMR red; Roche) and double stained for insulin. Fluorescence was analyzed by using a Nikon MEA53200 (Nikon GmbH, Dusseldorf, Germany) microscope, and images were acquired by using NIS-Elements software (Nikon).

[12] = target: PKC-ALPHA (Homo sapiens, UniProt P17252); assay: Nanosyn kinase profiling, mobility shift assay; settings: read-out: % inhibition by neratinib
[13] = NeraCtr group (no STZ), individual mice

Sequence of MEK6 (P52564 whole entry): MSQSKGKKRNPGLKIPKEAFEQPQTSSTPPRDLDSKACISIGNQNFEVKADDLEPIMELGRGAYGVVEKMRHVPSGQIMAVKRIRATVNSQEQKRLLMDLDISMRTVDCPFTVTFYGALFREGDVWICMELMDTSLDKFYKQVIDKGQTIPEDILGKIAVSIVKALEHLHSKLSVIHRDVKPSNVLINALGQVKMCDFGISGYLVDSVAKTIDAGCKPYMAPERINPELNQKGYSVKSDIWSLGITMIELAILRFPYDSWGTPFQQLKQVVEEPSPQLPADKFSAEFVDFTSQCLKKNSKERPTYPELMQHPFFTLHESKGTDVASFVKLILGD

Question: With `CCOc1cc2ncc(C#N)c(Nc3ccc(OCc4ccccn4)c(Cl)c3)c2cc1NC(=O)/C=C/CN(C)C` [neratinib] as the molecule, how does the inhibition at 10 µM [1] read?
Answer: 9%

Question: What about the inhibition at 10 µM [2] of the same molecule?
Answer: 84%

Question: And the “number of kinases with 50% of inhibition” value [3]?
Answer: 59

Question: And the inhibition at 10 µM [4]?
Answer: 68%

Question: And the “neratinib in pancreatic tissue” value ([5]; WT mice, 4 h after i.p. injection)?
Answer: clearly detected

Question: And the “neratinib signal in pancreas tissue sections” value ([5]; db/db mice, 4-week daily i.p. injection)?
Answer: specific signal was obtained

Question: And the body weight [6]?
Answer: no influence on body weight

Question: And the TUNEL%/ mouse ([7]; NeraCtr group (no STZ), MEAN)?
Answer: 0.08333%

Question: And the TUNEL%/ mouse [7, 13]?
Answer: 0.3333% and 0%

Question: And the TUNEL%/ mouse ([7]; NeraSTZ group, MEAN)?
Answer: 0.24%

Question: What about the TUNEL%/ mouse ([7]; NeraSTZ group, individual mice) of the same molecule?
Answer: 0% and 0.2857% and 1.2987% and 0.3546% and 0.7008%

Question: What about the β-cell apoptosis ([7]; STZ mice, day 35) of the same molecule?
Answer: reduced β-cell apoptosis

Question: What about the Ki67%/ mouse ([8]; NeraCtr group (no STZ), MEAN) of the same molecule?
Answer: 0.3774%

Question: What about the Ki67%/ mouse [8, 13] of the same molecule?
Answer: 0% and 2% and 1.019%

Question: What about the Ki67%/ mouse ([8]; NeraSTZ group, MEAN) of the same molecule?
Answer: 3.98%

Question: What about the Ki67%/ mouse ([8]; NeraSTZ group, individual mice) of the same molecule?
Answer: 0% and 6.981% and 5.492% and 7.984% and 3.425%

Question: What about the “activity on MST family members” value [9] of the same molecule?
Answer: potent activity

Question: What about the “ipITT normalized to 100” value ([10]; 0 min after ins) of the same molecule?
Answer: 100

Question: What about the “ipITT normalized to 100” value ([10]; 15 min after ins) of the same molecule?
Answer: 132.381

Question: What about the “ipITT normalized to 100” value ([10]; 30 min after ins) of the same molecule?
Answer: 111.751

Question: What about the “ipITT normalized to 100” value ([10]; 60 min after ins) of the same molecule?
Answer: 88.1279

Question: What about the “ipITT normalized to 100” value ([10]; 90 min after ins) of the same molecule?
Answer: 87.8414

Question: And the “basal glucose lower in neratinib-treated mice after a short fast of 4 h” value ([10]; db/db)?
Answer: 20%

Question: And the “response to insulin challenge (ipITT)” value ([10]; db/db)?
Answer: modestly reduced ability to lower their glucose levels

Question: And the “AUC ipITT” value ([10]; insert 8d, normalized to 100, individual mice)?
Answer: 11197.2 and 9260.59 and 10559.8 and 6670.17 and 8196.06 and 9385.6

Question: And the “MEAN AUC ipITT” value ([10]; insert 8d, normalized to 100, mean)?
Answer: 9211.58

Question: And the ipITT ([10]; time 0, MEAN)?
Answer: 336.667

Question: And the ipITT ([10]; time 0, individual mice)?
Answer: 327 and 354 and 301 and 357 and 292 and 389

Question: What about the ipITT ([10]; time 15, MEAN) of the same molecule?
Answer: 444.667

Question: And the ipITT ([10]; time 15, individual mice)?
Answer: 477 and 480 and 417 and 432 and 371 and 491

Question: And the ipITT ([10]; time 30, MEAN)?
Answer: 371.5

Question: And the ipITT ([10]; time 30, individual mice)?
Answer: 455 and 383 and 437 and 224 and 323 and 407

Question: And the ipITT ([10]; time 60, MEAN)?
Answer: 297.167

Question: And the ipITT ([10]; time 60, individual mice)?
Answer: 397 and 342 and 303 and 176 and 182 and 383

Question: What about the ipITT ([10]; time 90, MEAN) of the same molecule?
Answer: 295.833

Question: And the ipITT ([10]; time 90, individual mice)?
Answer: 324 and 270 and 290 and 289 and 230 and 372

Question: What about the “β-cell Glut2 expression” value ([11]; MLD–STZ mice) of the same molecule?
Answer: restored β-cell Glut2 expression

Question: What about the “loss of nuclear PDX1- and NKX6.1-positive cells and islet architecture in MLD–STZ mice” value ([11]; mouse, in vivo) of the same molecule?
Answer: markedly attenuated

Question: And the inhibition at 10 µM [12]?
Answer: 7%
